From US10858352B2, “Pharmaceutical compounds” (Heptares Therapeutics Limited, priority 2018, dated 2020)

Key:
Format in all cases: cell-based
[1] = molecular target: T1, human muscarinic M1 receptor (Homo sapiens, UniProt P11229); assay: Alphascreen Surefire phospho-ERK1/2 functional assay, M1; conditions: CHO cells stably expressing human M1; for % Emax cf. ACh (M1): Emax relative to ACh; for pEC50 M1: agonist 5 min, 37° C.
T1 sequence (P11229 1-460): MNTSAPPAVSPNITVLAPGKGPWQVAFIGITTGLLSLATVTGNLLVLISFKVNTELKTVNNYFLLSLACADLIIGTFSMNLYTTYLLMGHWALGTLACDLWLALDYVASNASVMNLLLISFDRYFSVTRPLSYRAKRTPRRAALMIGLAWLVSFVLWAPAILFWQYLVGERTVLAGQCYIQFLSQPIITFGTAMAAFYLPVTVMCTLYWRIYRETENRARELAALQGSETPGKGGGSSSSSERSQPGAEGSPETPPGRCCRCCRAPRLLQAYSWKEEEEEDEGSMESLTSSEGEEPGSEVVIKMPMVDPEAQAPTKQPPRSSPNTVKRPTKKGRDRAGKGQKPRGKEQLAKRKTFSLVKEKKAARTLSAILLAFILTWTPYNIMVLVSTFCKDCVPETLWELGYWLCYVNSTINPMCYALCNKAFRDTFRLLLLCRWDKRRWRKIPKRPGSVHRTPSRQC
Outline: (§1)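 CHO cells stably expressing human M1, M2, M3 or M4 receptor, serum-starved overnight, then stimulated with agonist for 5 min at 37 °C. Cells lysed for 15 min and phospho-ERK1/2 detected in the lysate by AlphaScreen SureFire.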

[2] = molecular target: T2, human muscarinic M4 receptor (Homo sapiens, UniProt P08173); assay: Alphascreen Surefire phospho-ERK1/2 functional assay, M4; conditions: CHO cells stably expressing human M4; for % Emax cf. ACh (M4): Emax relative to ACh; for pEC50 M4: agonist 5 min, 37° C.
T2 construct: expressed in transfected cells
T2 sequence (P08173 1-479): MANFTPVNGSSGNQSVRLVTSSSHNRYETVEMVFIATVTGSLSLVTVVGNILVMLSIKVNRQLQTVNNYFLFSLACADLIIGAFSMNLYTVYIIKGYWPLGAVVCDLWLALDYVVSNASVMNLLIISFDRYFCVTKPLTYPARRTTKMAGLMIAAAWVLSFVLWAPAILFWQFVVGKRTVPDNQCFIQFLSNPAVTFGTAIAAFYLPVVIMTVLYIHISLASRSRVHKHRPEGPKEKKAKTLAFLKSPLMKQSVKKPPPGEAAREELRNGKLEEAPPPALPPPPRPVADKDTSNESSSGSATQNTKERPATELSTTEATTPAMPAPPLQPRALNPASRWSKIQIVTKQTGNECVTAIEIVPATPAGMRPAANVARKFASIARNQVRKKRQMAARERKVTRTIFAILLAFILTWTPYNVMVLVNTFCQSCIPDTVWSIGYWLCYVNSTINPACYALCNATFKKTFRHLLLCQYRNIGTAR
Outline: as §1

[3] = molecular target: T3, human muscarinic M3 receptor (Homo sapiens, UniProt P20309); assay: Alphascreen Surefire phospho-ERK1/2 functional assay, M3; conditions: CHO cells stably expressing human M3; for % Emax cf. ACh (M3): Emax relative to ACh; for pEC50 M3: agonist 5 min, 37° C.
T3 construct: expressed in transfected cells
Description: (§2) ERK1/2 phosphorylation is a downstream consequence of both Gq/11 and Gi/o protein coupled receptor activation, making it highly suitable for the assessment of M1, M3 (Gq/11 coupled) and M2, M4 receptors (Gi/o coupled), rather than using different assay formats for different receptor subtypes. CHO cells stably expressing the human muscarinic M1, M2, M3 or M4 receptor were plated (25K/well) onto 96-well tissue culture plates in MEM-alpha+10% dialysed FBS. Once adhered, cells were serum-starved overnight. Agonist stimulation was performed by the addition of 5 μL agonist to the cells for 5 min (37° C.). Media was removed and 50 μL of lysis buffer added. After 15 min, a 4 μL sample was transferred to 384-well plate and 7 μL of detection mixture added. […]

[4] = molecular target: T4, human muscarinic M2 receptor (Homo sapiens, UniProt P08172); assay: Alphascreen Surefire phospho-ERK1/2 functional assay, M2; conditions: CHO cells stably expressing human M2; for % Emax cf. ACh (M2): Emax relative to ACh; for pEC50 M2: agonist 5 min, 37° C.
T4 sequence (P08172 1-466): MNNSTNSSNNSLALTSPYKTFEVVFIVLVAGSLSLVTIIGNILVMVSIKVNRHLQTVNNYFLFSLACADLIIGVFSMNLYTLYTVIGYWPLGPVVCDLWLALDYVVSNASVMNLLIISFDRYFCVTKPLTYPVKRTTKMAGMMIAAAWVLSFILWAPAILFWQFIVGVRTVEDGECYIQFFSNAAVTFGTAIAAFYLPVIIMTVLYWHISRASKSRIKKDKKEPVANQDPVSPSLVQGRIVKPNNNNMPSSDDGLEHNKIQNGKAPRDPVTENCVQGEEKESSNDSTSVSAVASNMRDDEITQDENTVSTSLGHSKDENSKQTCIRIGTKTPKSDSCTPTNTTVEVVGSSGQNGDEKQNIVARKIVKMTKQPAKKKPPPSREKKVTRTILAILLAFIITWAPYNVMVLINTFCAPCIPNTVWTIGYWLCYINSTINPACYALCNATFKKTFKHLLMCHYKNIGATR
Description: as §2

T3 sequence (P20309 whole entry): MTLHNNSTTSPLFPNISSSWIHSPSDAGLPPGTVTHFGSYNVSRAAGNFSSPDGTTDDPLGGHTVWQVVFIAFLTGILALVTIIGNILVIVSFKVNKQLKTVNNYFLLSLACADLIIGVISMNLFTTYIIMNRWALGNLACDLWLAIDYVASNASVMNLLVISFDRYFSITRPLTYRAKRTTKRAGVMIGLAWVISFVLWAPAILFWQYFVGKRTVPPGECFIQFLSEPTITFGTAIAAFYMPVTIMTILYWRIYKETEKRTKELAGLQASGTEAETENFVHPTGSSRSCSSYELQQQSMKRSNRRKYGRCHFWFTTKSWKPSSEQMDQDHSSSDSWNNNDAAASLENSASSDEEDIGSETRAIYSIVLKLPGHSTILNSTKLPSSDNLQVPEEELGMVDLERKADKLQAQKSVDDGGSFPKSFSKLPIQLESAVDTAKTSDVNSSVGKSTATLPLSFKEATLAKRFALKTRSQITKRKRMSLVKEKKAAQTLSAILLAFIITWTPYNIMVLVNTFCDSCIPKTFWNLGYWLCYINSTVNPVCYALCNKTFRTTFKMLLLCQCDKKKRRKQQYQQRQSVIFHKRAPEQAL

## O=C1CC2(CCN(C3CC4CCC(C3)N4c3nc(C(F)(F)F)no3)CC2)CN1 (single isomer, unassigned; isomer 2) [12-3 Isomer 2]
[1]
  % Emax cf. ACh (M1): (103) %
  pEC50 M1: 8.30
[2]
  % Emax cf. ACh (M4): (23) %
  pEC50 M4: 6.70
[3]
  % Emax cf. ACh (M3): (70) %
  pEC50 M3: <4.70
[4]
  % Emax cf. ACh (M2): (14) %
  pEC50 M2: <4.70

## CC(=O)N(CC1(C)CCC1)C1CCN(C2CC3CCC(C2)N3c2nc(C)no2)CC1 (single isomer, unassigned; isomer 2) [12-18 Isomer 2]
[1]
  % Emax cf. ACh (M1): (92) %
  pEC50 M1: 8.63
[2]
  % Emax cf. ACh (M4): (92) %
  pEC50 M4: 7.83
[3]
  % Emax cf. ACh (M3): (48) %
  pEC50 M3: 5.72
[4]
  % Emax cf. ACh (M2): (90) %
  pEC50 M2: 6.59

## Cc1noc(N2C3COCC2CC(N2C[C@@H]4[C@H](C2)[C@H]4C(=O)N(C)C(C)C)C3)n1 (single isomer, unassigned; isomer 2) [12-22 Isomer 2]
[1]
  % Emax cf. ACh (M1): (102) %
  pEC50 M1: 8.06
[2]
  % Emax cf. ACh (M4): (108) %
  pEC50 M4: 6.23
[3]
  % Emax cf. ACh (M3): (52) %
  pEC50 M3: 4.90
[4]
  % Emax cf. ACh (M2): (81) %
  pEC50 M2: 5.68

## CCN(CC)C(=O)[C@H]1[C@@H]2CN(C3CC4COCC(C3)N4c3nc(C(F)(F)F)no3)C[C@@H]21 (single isomer, unassigned; isomer 2) [12-23 Isomer 2]
[1]
  % Emax cf. ACh (M1): (132) %
  pEC50 M1: 7.59
[2]
  % Emax cf. ACh (M4): (30) %
  pEC50 M4: 6.92
[3]
  % Emax cf. ACh (M3): (25) %
  pEC50 M3: <4.70
[4]
  % Emax cf. ACh (M2): (13) %
  pEC50 M2: <4.70

## CCN(C)C(=O)[C@H]1[C@@H]2CN(C3CC4CCC(C3)N4c3nc(C)no3)C[C@@H]21 (single isomer, unassigned; isomer 2) [12-24 Isomer 2]
[1]
  % Emax cf. ACh (M1): (102) %
  pEC50 M1: 7.58
[2]
  % Emax cf. ACh (M4): (83) %
  pEC50 M4: 6.02
[3]
  % Emax cf. ACh (M3): (25) %
  pEC50 M3: <4.70
[4]
  % Emax cf. ACh (M2): (60) %
  pEC50 M2: 5.33

## CCN(CC)C(=O)[C@H]1[C@@H]2CN(C3CC4CCC(C3)N4c3nc(C)no3)C[C@@H]21 (single isomer, unassigned; isomer 2) [12-25 Isomer 2]
[1]
  % Emax cf. ACh (M1): (91) %
  pEC50 M1: 8.55
[2]
  % Emax cf. ACh (M4): (119) %
  pEC50 M4: 6.82
[3]
  % Emax cf. ACh (M3): (57) %
  pEC50 M3: 5.29
[4]
  % Emax cf. ACh (M2): (84) %
  pEC50 M2: 6.15
